A word on the melting point: it is the temperature of the solid-liquid transition.

Data set [1] deals with tubulin. Briefly: Tubulin polymerization assay. In kind it is biochemical. More on the design: key: a compound showing 0 to 50% inhibition at 20 μM is reported as score 1; Score 2 compounds are defined as compound showing more than 50% inhibition at 20 μM and less than 50% inhibition at 5 μM; a compound showing more than 50% inhibition at 5 μM is reported as score 3. The conditions noted are these: tested at 20 μM and 5 μM. The gist of the method:
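Cytoskeleton kit tubulin was run in a 10 µl final volume at 37 °C, with fluorescence read every minute for 1 h. Polymerization was taken as the maximum slope (4-point linear regression) and expressed as % of no-compound control. Compounds were tested at 20 µM, then at 5 µM if inhibition exceeded 50%, and scored by % inhibition.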

The target in data set [2] is T1, Human PARP-1 enzyme (Homo sapiens, UniProt P09874).
T1 construct: purchased Trevigen
T1 sequence (P09874 whole entry): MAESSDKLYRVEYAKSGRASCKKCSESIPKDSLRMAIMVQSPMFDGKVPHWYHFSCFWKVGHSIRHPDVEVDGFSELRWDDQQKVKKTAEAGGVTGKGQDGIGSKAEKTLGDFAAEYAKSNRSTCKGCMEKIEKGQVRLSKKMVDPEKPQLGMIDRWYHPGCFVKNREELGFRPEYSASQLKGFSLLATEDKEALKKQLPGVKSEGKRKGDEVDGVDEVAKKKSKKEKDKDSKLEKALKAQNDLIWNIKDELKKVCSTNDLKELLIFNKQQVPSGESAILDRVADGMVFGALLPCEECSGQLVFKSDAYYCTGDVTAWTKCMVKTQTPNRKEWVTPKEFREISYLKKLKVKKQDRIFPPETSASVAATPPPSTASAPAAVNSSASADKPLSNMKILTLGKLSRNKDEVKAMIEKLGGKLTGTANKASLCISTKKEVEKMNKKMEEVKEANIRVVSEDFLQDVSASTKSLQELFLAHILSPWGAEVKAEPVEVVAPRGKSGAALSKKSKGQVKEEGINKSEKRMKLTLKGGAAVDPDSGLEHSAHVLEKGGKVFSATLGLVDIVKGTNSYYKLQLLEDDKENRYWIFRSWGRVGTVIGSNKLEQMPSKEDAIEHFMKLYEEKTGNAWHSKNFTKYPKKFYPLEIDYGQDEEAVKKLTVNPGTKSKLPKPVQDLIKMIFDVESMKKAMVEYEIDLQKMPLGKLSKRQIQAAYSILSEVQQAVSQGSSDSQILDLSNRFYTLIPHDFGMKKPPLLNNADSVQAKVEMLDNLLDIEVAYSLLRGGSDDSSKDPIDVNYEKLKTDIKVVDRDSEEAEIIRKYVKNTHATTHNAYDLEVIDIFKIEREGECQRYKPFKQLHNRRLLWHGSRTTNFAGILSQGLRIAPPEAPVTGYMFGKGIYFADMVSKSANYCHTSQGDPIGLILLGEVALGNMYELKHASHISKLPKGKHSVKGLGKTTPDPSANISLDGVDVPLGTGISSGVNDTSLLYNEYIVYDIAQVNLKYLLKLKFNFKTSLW
Briefly: In vitro Scintillation Proximity Assay (SPA) for PARP-1 inhibitory activity. The format is biochemical. As to conditions: read-out: in vitro SPA assay PARP-1 pIC50 (converted). The essentials:
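SPA assay: nicked-DNA-activated PARP-1 (0.1–0.2 μg/ml) ADP-ribosylates biotinylated histones (2 μg/ml) using [3H]-NAD+, 20 min at RT in Tris pH 8/DTT/MgCl2, stopped with 2 mM NAD+. Blank-subtracted cpm expressed as % control; IC50 by linear interpolation, reported as pIC50 (10−5 to 3×10−9 M tested).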
Background: SPA uses beads or plates that emit light when radiolabelled molecules are held near them.

For data set [3], the system named is PC3 cells. Briefly: EB1 Comet (microtubule disruption) assay. In kind it is cell-based, human. As to conditions: 1 hour treatment; for minimal effective concentration: Homo sapiens, PC-3, 1 h, read-out: EB1 pLAC (converted). The gist of the method:
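Readout is loss of Eb1 plus-end foci, scored by immunofluorescence microscopy, in PC3 cells after 1 h compound treatment at 37 °C with 0.6% final DMSO. LAC is defined as the lowest concentration leaving at least 50% of cells without Eb1 foci.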

Take `CCc1cc2ccc(C(C)(C#N)Cc3cccc(C#N)n3)cc2[nH]c1=O` (single isomer, unassigned) [Compound 206]: the melting point came out at 121 °C. For the same molecule, the tubulin polymerisation score in data set [1] is 1 (a compound showing 0 to 50% inhibition at 20 μM is reported as score 1). Moreover, the IC50 in data set [2] is 50.1 nM.

In turn, `CCc1cc2ccc(C(C)(C#N)Cc3cccc(C#N)n3)cc2[nH]c1=O` (single isomer, unassigned) [Compound 207] gave a melting point of 133 °C. The tubulin polymerisation score in data set [1] was 3 (a compound showing more than 50% inhibition at 5 μM is reported as score 3). The IC50 in data set [2] is 39.8 nM. The minimal effective concentration in data set [3] is 0.1 µM.

`C#Cc1cccc(C[C@](C)(C#N)c2ccc3cc(CC)c(=O)[nH]c3c2)c1` [Compound 2]: the melting point stood at 125 °C. Moreover, the tubulin polymerisation score in data set [1] is given as 1 (a compound showing 0 to 50% inhibition at 20 μM is reported as score 1). Also, the IC50 in data set [2] was 126 nM.

Consider `C#Cc1cccc(C[C@@](C)(C#N)c2ccc3cc(CC)c(=O)[nH]c3c2)c1` [Compound 3], for which the melting point was determined as 128 °C. Besides, in data set [1], the tubulin polymerisation score was determined as 2. In addition, the IC50 in data set [2] was 79.4 nM. Further, the minimal effective concentration in data set [3] is 0.01 µM.

Consider `CCc1cc2ccc(C(C#N)(CC)Cc3ccccc3)cc2[nH]c1=O` (stereo not drawn) [Compound 32], for which the melting point was 198 °C. Also, the tubulin polymerisation score in data set [1] was 1 (a compound showing 0 to 50% inhibition at 20 μM is reported as score 1). Further, the IC50 in data set [2] is 501 nM. For the same molecule, the minimal effective concentration in data set [3] is 1 µM.

`COc1ccccc1-c1nc(CC(C)(C#N)c2ccc3cc(C)c(=O)[nH]c3c2)no1` (stereo not drawn) [Compound 33]: the melting point is 130 °C. In addition, the tubulin polymerisation score in data set [1] is listed as 1 (a compound showing 0 to 50% inhibition at 20 μM is reported as score 1). Besides, the IC50 in data set [2] is 1260 nM.

On to `Cc1cc2ccc(C(C)(C#N)Cc3cccc(C#N)c3)cc2[nH]c1=O` (stereo not drawn) [Compound 34], for which the melting point is 260 °C. Moreover, the IC50 in data set [2] was 794 nM. For the same molecule, the minimal effective concentration in data set [3] was 0.316 µM.

On to `Cc1cc2ccc([C@@](C)(C#N)Cc3cccc(C#N)c3)cc2[nH]c1=O` [Compound 35], for which the melting point stood at 233 °C. Also, the IC50 in data set [2] was 501 nM.

`Cc1cc2ccc([C@](C)(C#N)Cc3cccc(C#N)c3)cc2[nH]c1=O` [Compound 36] came in with a melting point of 226 °C. Besides, the tubulin polymerisation score in data set [1] is 1 (a compound showing 0 to 50% inhibition at 20 μM is reported as score 1). Also, in data set [2], the IC50 is 1580 nM. Further, the minimal effective concentration in data set [3] was 0.316 µM.

In turn, `Cc1cc2ccc(C(C)(C#N)Cc3cccc(Cl)c3)cc2[nH]c1=O` (stereo not drawn) [Compound 37] gave a melting point of 242 °C. Besides, in data set [1], the tubulin polymerisation score was 1 (a compound showing 0 to 50% inhibition at 20 μM is reported as score 1). Besides, the IC50 in data set [2] was 2000 nM. Moreover, the minimal effective concentration in data set [3] is 3.16 µM.

As to `CC(C)c1cc2ccc(C(C)(C#N)Cc3ccccc3)cc2[nH]c1=O` (stereo not drawn) [Compound 38], the melting point is 178 °C. The IC50 in data set [2] was above 10000 nM.

The molecule `CC(=O)c1cc2ccc(C(C)(C#N)Cc3ccccc3)cc2[nH]c1=O` (stereo not drawn) [Compound 39] yielded a melting point of 194 °C. Further, the IC50 in data set [2] was 7940 nM.

In the case of `CCc1cc2ccc(C(C)(C#N)Cc3cccc(CCC#N)c3)cc2[nH]c1=O` (stereo not drawn) [Compound 169], the melting point turned out to be 149 °C. In addition, the IC50 in data set [2] is 79.4 nM. Besides, the “EB1 pLAC” value in data set [3] is given as 6.

Consider `C=Cc1cccc(CC(C)(C#N)c2ccc3cc(CC)c(=O)[nH]c3c2)c1` (stereo not drawn) [Compound 172], for which the melting point worked out at 130 °C. Further, the IC50 in data set [2] is 100 nM. For the same molecule, in data set [3], the minimal effective concentration is 0.1 µM.

In the case of `CCc1cc2cc(F)c(C(C)(C#N)Cc3cccc(C#N)c3)cc2[nH]c1=O` (stereo not drawn) [Compound 175], the melting point is 202 °C. Also, the IC50 in data set [2] was 200 nM. The minimal effective concentration in data set [3] was 1 µM.

`CCc1c(C)c2ccc(C(C)(C#N)Cc3cccc(C#N)c3)cc2[nH]c1=O` (stereo not drawn) [Compound 181] displayed a melting point of 204 °C. Besides, the IC50 in data set [2] is 100 nM. The minimal effective concentration in data set [3] was 0.316 µM.

Molecule `CCc1cc2cc(OCCOC)c(C(C)(C#N)Cc3cccc(C#N)c3)cc2[nH]c1=O` (stereo not drawn) [Compound 182] registered a melting point of 130 °C. For the same molecule, in data set [2], the IC50 was 158 nM.

In the case of `CCc1cc2ccc(C(C)(C#N)Cc3cccc(C#CCO)c3)cc2[nH]c1=O` (stereo not drawn) [Compound 183], the melting point stood at 182 °C. In addition, in data set [2], the IC50 was 63.1 nM. Further, in data set [3], the minimal effective concentration was below 0.0316 µM.

Regarding `CCc1cc2ccc(C(F)(C#N)Cc3ccccc3)cc2[nH]c1=O` (stereo not drawn) [Compound 187], the melting point was 176 °C. In data set [2], the IC50 is 63.1 nM. Further, the minimal effective concentration in data set [3] is 5.62 µM.

`CCc1cc2ccc(C(C)(C#N)CN(C)Cc3ccccc3)cc2[nH]c1=O` (stereo not drawn) [Compound 189] returned a melting point of 136 °C. Also, the IC50 in data set [2] was 398 nM. Moreover, the minimal effective concentration in data set [3] is 1 µM.

Molecule `CCc1cc2ccc(C(C)(C#N)C(C)c3ccccc3)cc2[nH]c1=O` (stereo not drawn) [Compound 198] showed a melting point of 198 °C. For the same molecule, the IC50 in data set [2] is 126 nM. The minimal effective concentration in data set [3] is 0.316 µM.

`CCc1cc2ccc([C@](C)(C#N)[C@@H](C)c3ccccc3)cc2[nH]c1=O` [Compound 199]: the melting point is 250 °C. Further, the IC50 in data set [2] is 79.4 nM.

For the molecule `C#Cc1cccc(CC(C)(C#N)c2ccc3cc(CC)c(=O)[nH]c3c2)n1` (stereo not drawn) [Compound 211], the melting point is 140 °C. In data set [2], the IC50 was 126 nM. For the same molecule, in data set [3], the minimal effective concentration was 0.1 µM.

Consider `CCc1cc2ccc(C(C)(C#N)Cc3cccc(N(C)C)n3)cc2[nH]c1=O` (stereo not drawn) [Compound 213], for which the melting point is 115 °C. In data set [2], the IC50 was 63.1 nM. Further, in data set [3], the minimal effective concentration is 0.316 µM.

In turn, `CCc1cc2ccc(C(C)(C#N)Cc3cccc(I)n3)cc2[nH]c1=O` (stereo not drawn) [Compound 214] came in with a melting point of 131 °C. For the same molecule, in data set [2], the IC50 is 50.1 nM. For the same molecule, the minimal effective concentration in data set [3] is 0.1 µM.

`CCOC(=O)c1cccc(CC(C)(C#N)c2ccc3cc(CC)c(=O)[nH]c3c2)n1` (stereo not drawn) [Compound 215] had a melting point of 60 °C. Further, the IC50 in data set [2] was 398 nM. Also, the minimal effective concentration in data set [3] was 0.316 µM.

Molecule `CCc1cc2ccc(C(C)(C#N)Cc3cccc(COC)n3)cc2[nH]c1=O` (stereo not drawn) [Compound 216] gave a melting point of 153 °C. The IC50 in data set [2] was 398 nM. Moreover, in data set [3], the minimal effective concentration is 1 µM.

Take `CCc1cc2ccc(C(C)(C#N)Cc3cccc(CN)n3)cc2[nH]c1=O` (stereo not drawn) [Compound 221]: the melting point worked out at 65 °C. Further, the IC50 in data set [2] is 79.4 nM. Further, the minimal effective concentration in data set [3] was 3.16 µM.

With `CCc1cc2ccc(C(C)(C#N)Cc3cccc(C#N)n3)cc2[nH]c1=O` (stereo not drawn) [Compound 329], the tubulin polymerisation score in data set [1] is on record as 3 (a compound showing more than 50% inhibition at 5 μM is reported as score 3). Further, the IC50 in data set [2] was 79.4 nM. Also, in data set [3], the minimal effective concentration is 0.316 µM.

In data set [1], `CCc1cc2ccc(C(C)(C#N)Cc3nc4ccccc4n3C)cc2[nH]c1=O` (stereo not drawn) [Compound 338] registered a tubulin polymerisation score of 2. The IC50 in data set [2] is 200 nM. Further, the minimal effective concentration in data set [3] is 1 µM.

Molecule `CCc1cc2ccc(C(C)(C#N)Cc3nc(Cl)cc(N(C)C)n3)cc2[nH]c1=O` (stereo not drawn) [Compound 359] had a tubulin polymerisation score in data set [1] of 2. In addition, the IC50 in data set [2] was 79.4 nM. Besides, the minimal effective concentration in data set [3] is 0.1 µM.

With `CCc1cc2ccc(C(C)(C#N)Cc3nccc(OC)n3)cc2[nH]c1=O` (stereo not drawn) [Compound 360], the tubulin polymerisation score in data set [1] turned out to be 2. Moreover, the IC50 in data set [2] is 100 nM. Further, in data set [3], the minimal effective concentration was 1 µM.
